Reference: PubChem BioAssay AID2060904 (Molecular Pharmacology Branch, DTP, NCI, 2025)

Tested on: 349418-098-R-PDC complex spheroid viability
Assay: Anticancer human tumor 349418-098-R-PDC patient-derived lung adenocarcinoma cell line growth inhibition [RAS]
Conditions: for viability, T/C: stronger effect = lower value; active means viability on the fitted dose curve at most 10% of control; inactive means the rest
Method in brief: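 Multi-cell-type spheroids: tumor cells plus HUVEC endothelial cells and mesenchymal stem cells. RAS-pathway inhibitors were combined with targeted agents, each dosed in half-log steps down from clinical Cmax, or from 10 microM when Cmax was unknown.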
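Further: spheroids exposed to compound for seven days before viability readout.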

CCC(CC)c1cc(NC2CCC(N)C2)n2nccc2n1 (centres undefined) + C=CC(=O)N1CCN(c2nc(OCC3CCCN3C)nc3c(F)c(-c4nc(N)cc(C)c4C(F)(F)F)c(Cl)cc23)C(C)C1
797 nM: IC50 (curve of first compound, second compound 0.0316 µM)
588 nM: IC50 (curve of first compound, second compound 0.316 µM)
884 nM: IC50 (curve of first compound, second compound 0.1 µM)
active: viability, T/C (second compound 0.00316 µM, first compound 3.16 µM) 3.31% | viability, T/C (second compound 0.00316 µM, first compound 10 µM) 2.99% | viability, T/C (second compound 0.01 µM, first compound 3.16 µM) 3.18% | viability, T/C (second compound 0.01 µM, first compound 10 µM) 2.92% | viability, T/C (second compound 0.0316 µM, first compound 3.16 µM) 2.8% | viability, T/C (second compound 0.0316 µM, first compound 10 µM) 2.99% | viability, T/C (second compound 0.1 µM, first compound 3.16 µM) 3.01% | viability, T/C (second compound 0.1 µM, first compound 10 µM) 3.2% | viability, T/C (second compound 0.316 µM, first compound 3.16 µM) 3.42% | viability, T/C (second compound 0.316 µM, first compound 10 µM) 2.54% | viability, T/C (second compound 1 µM, first compound 3.16 µM) 3.58% | viability, T/C (second compound 1 µM, first compound 10 µM) 4.86%
1100 nM: IC50 (curve of first compound, second compound 1 µM)
720 nM: IC50 (curve of first compound, second compound 0.00316 µM)
996 nM: IC50 (curve of first compound, second compound 0.01 µM)
inactive: viability, T/C (second compound 0.00316 µM, first compound 0.0316 µM) 114% | viability, T/C (second compound 0.00316 µM, first compound 0.1 µM) 108% | viability, T/C (second compound 0.00316 µM, first compound 0.316 µM) 76.1% | viability, T/C (second compound 0.00316 µM, first compound 1 µM) 43.2% | viability, T/C (second compound 0.01 µM, first compound 0.0316 µM) 110% | viability, T/C (second compound 0.01 µM, first compound 0.1 µM) 86.8% | viability, T/C (second compound 0.01 µM, first compound 0.316 µM) 84.8% | viability, T/C (second compound 0.01 µM, first compound 1 µM) 53.8% | viability, T/C (second compound 0.0316 µM, first compound 0.0316 µM) 85.3% | viability, T/C (second compound 0.0316 µM, first compound 0.1 µM) 114% | viability, T/C (second compound 0.0316 µM, first compound 0.316 µM) 88% | viability, T/C (second compound 0.0316 µM, first compound 1 µM) 40.8% | viability, T/C (second compound 0.1 µM, first compound 0.0316 µM) 73% | viability, T/C (second compound 0.1 µM, first compound 0.1 µM) 80.5% | viability, T/C (second compound 0.1 µM, first compound 0.316 µM) 102% | viability, T/C (second compound 0.1 µM, first compound 1 µM) 45.8% | viability, T/C (second compound 0.316 µM, first compound 0.0316 µM) 111% | viability, T/C (second compound 0.316 µM, first compound 0.1 µM) 88.1% | viability, T/C (second compound 0.316 µM, first compound 0.316 µM) 75.7% | viability, T/C (second compound 0.316 µM, first compound 1 µM) 31.7% | viability, T/C (second compound 1 µM, first compound 0.0316 µM) 78.8% | viability, T/C (second compound 1 µM, first compound 0.1 µM) 71.9% | viability, T/C (second compound 1 µM, first compound 0.316 µM) 85.4% | viability, T/C (second compound 1 µM, first compound 1 µM) 54.3%

Nc1ccn(C2OC(CO)C(O)C2(F)F)c(=O)n1 (centres undefined)
active: viability, T/C (compound 0.01 µM) 6.96% [middle of 4 runs] | viability, T/C (compound 0.0316 µM) 5.62% [middle of 4 runs] | viability, T/C (compound 0.1 µM) 5.46% [middle of 4 runs] | viability, T/C (compound 0.316 µM) 5.2% [middle of 4 runs] | viability, T/C (compound 1 µM) 5.11% [middle of 4 runs]
inactive: viability, T/C (compound 0.00316 µM) 25.7% [middle of 4 runs]
< 3.16 nM: IC50 (curve of compound)
